These results are taken from publication PMC4583449, “Characterisation of (R)-2-(2-Fluorobiphenyl-4-yl)-N-(3-Methylpyridin-2-yl)Propanamide as a Dual Fatty Acid Amide Hydrolase: Cyclooxygenase Inhibitor” (PLoS ONE, 2015).

Structures are written as SMILES. “And” between values parts separate entries of the source, which are not always exact repeats. Identical values can stand only once. Like-named read-outs stand apart in the source and are kept apart here.

One test concerns the target T1, human recombinant COX-2 (Homo sapiens, UniProt P35354).
T1 construct: purchased Cayman Chemical Co. 60122
T1 sequence (P35354 18-604): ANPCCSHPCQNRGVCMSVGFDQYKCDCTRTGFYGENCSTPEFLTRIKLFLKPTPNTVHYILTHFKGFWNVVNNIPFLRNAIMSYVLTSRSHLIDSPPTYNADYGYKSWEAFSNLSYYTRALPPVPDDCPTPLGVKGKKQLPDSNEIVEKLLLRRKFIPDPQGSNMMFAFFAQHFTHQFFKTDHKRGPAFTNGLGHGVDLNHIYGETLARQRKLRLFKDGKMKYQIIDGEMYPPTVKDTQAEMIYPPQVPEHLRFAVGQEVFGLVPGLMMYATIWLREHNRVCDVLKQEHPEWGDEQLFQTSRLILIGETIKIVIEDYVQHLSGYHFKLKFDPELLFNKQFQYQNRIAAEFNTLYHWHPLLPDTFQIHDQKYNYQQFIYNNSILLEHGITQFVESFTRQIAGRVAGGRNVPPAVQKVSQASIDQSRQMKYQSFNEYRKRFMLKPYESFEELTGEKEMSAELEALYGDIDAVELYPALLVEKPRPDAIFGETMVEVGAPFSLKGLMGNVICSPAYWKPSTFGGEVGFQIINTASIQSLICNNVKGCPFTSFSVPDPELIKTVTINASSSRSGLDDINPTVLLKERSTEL
Nature of the test: COX-2 inhibition, oxygraphic method (oxygen electrode). Particulars: no preincubation phase, approximate, from initial velocities. Type of test: biochemical. Here is the method:
The assay was performed according to Meade et al. with minor modifications. An oxygen electrode chamber with integral stirring (Oxygraph System, Hansatech Instruments, King´s Lynn, U.K.) was calibrated daily to ambient temperature and air pressure. The assay buffer contained 0.1 M Tris-HCl buffer pH 7.4, 1 μM haematin, 2 mM phenol, 5 mM EDTA, 10 μM substrate (arachidonic acid or 2-AG) (final assay volume was 2 ml). After addition of (R)- or (S)-Flu-AM1 dissolved in ethanol (final assay concentration 1%), a baseline was established for 5 min before initiation of reaction by addition of 200 units ovine COX-1 or human recombinant COX-2. The change in oxygen consumption as a measurement of enzyme activity was monitored for approximately 5 min.

The target of a further test is T2, mouse brain FAAH (Mus musculus, UniProt O08914).
T2 construct: Brains from male B6CBAF1/J mice, stored at -80°C, were thawed, weighed and homogenized in cold buffer; from tissue; host or cells: brain of male B6CBAF1/J mice (washed membrane pellet homogenate)
T2 sequence (O08914 1-579): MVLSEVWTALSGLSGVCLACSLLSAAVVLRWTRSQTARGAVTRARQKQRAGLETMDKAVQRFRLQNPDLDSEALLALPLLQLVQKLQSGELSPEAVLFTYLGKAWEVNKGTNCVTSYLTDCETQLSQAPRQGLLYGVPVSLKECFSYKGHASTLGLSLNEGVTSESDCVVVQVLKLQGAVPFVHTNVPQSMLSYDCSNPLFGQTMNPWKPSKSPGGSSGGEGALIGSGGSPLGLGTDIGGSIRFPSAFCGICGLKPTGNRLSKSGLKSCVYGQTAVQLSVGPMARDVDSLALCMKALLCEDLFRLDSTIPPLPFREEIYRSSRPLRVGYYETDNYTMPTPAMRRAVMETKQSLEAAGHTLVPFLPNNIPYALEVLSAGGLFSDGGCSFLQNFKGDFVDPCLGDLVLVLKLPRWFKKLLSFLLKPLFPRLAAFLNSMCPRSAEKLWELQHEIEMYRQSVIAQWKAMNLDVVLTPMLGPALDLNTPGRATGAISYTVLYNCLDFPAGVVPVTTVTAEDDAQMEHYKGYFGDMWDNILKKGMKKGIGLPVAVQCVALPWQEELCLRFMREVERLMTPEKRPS
Nature of the test: FAAH assay, [3H]AEA hydrolysis in mouse brain homogenates. Type of test: biochemical. On the procedure:
Brains from male B6CBAF1/J mice, stored at -80°C, were thawed, weighed and homogenized in cold buffer (20 mM HEPES, 1 mM MgCl2 pH 7.0). Homogenates were centrifuged (35,000 g at 4°C for 20 min) before the pellet was resuspended in cold homogenization buffer. Centrifugation and resuspension was repeated twice. The suspension was incubated at 37°C for 15 min to degrade any endogenous substrate able to interfere with the FAAH assay. After centrifugation (35,000 g at 4°C for 20 min), the pellet was resuspended in cold buffer (50 mM Tris-HCl, 1mM EDTA, 3 mM MgCl2, pH 7.4). The protein concentration was determined according to the Bradford assay after which the samples were frozen in aliquots at -80°C. Ethical permission for the animal experiments was obtained from the local animal research ethical committee (Umeå Ethical Committee for Animal Research, Umeå, Sweden). FAAH was assayed using the method of Boldrup et al., whereby homogenates (0.3 μg protein / assay) in assay buffer (10 mM Tris-HCl, 1mM EDTA, pH 7.4), test compounds and substrate ([^3H]AEA in 10 mM Tris-HCl, 1mM EDTA, pH 7.4 containing 10 mg/ml fatty acid-free bovine serum, assay concentration 0.5 μM unless otherwise stated) were incubated for 10 min at 37°C. Thereafter, 400 μL activated charcoal (80 μL activated charcoal + 320 μL 0.5 M HCl) was added and the samples were placed on ice and centrifuged at 2500 rpm for 10 min. Aliquots (200 μL) of the supernatant was analyzed for tritium content by liquid scintillation spectroscopy with quench correction.

Take `Cc1cccnc1NC(=O)[C@H](C)c1ccc(-c2ccccc2)c(F)c1` [(R)-Flu-AM1, (R)-2-(2-Fluorobiphenyl-4-yl)-N-(3-Methylpyridin-2-yl)Propanamide]: the IC50 (commonly the concentration needed to halve the response being measured) at human recombinant COX-2 (10 μM 2-AG, read-out: IC50 COX-2 (2-AG)) was 1 µM and ~1 µM; at human recombinant COX-2 (10 μM arachidonic acid, read-out: IC50 COX-2 (arachidonic acid)) it was 20 µM and ~20 µM; on mouse brain FAAH (0.5 μM [3H]AEA, read-out: IC50 inhibition of [3H]AEA hydrolysis in mouse brain homogenates), 8.8 µM. In addition, the Ki (in general, a measure of affinity in units of concentration, obtained from inhibition or displacement) on mouse brain FAAH (Dixon replot of mean kinetic data, 1–8 μM [3H]AEA, read-out: Ki FAAH (Dixon plot)) was found to be 19 µM; on mouse brain FAAH (kinetic experiments, 1–8 μM [3H]AEA, read-out: Ki FAAH (competitive model fit)) it was 20 ± 8 µM. Moreover, the “Mode of FAAH inhibition” value at mouse brain FAAH (kinetic experiments, 1–8 μM [3H]AEA) was “competitive inhibitor”.
